Assay: solution-based β-gal activity assay (ONPG hydrolysis)
Type: biochemical
Description: For the solution-based activity assay, β-gal fragments were added, either individually or in complementing pairs, to uncoated 96-well microtiter assay plates in equal molar amounts and incubated at room temperature on an orbital rocker for 1 hr. Full-length β-gal (1 mg/ml) was serially diluted to create a standardized concentration curve. At time zero, the assay was initiated by using a 12-channel pipettor to add 20 μl of ONPG (4 mg/ml) to each well of the microplate. In the endpoint assay, the microplates were incubated at room temperature for the appropriate length of time, e.g., 30 min, before the reaction was terminated by the addition of 50 μl of 1 M Na2CO3. Then, the absorbance (420 nm) was read in a Tecan Infinite 200 plate reader (Tecan; San Jose, CA). The absorbance data was transferred to a Microsoft Excel spreadsheet and the amount of ONPG substrate hydrolyzed was calculated.
To test the ability of the split-fragments to spontaneously refold and aggregate into tetramers in solution, complementing pairs of β-gal fragments were combined and assessed in a solution-based activity assay. Levels of active β-gal expression were measured by its catalytic hydrolysis of ortho-nitrophenyl-β-D-galactopyranoside (ONPG), a synthetic chromogenic substrate, to orthonitrophenol (ONP), a yellow product (λmax=420 nm). […]

Substance: Full length β-gal: purified full length biotinylated E. coli β-galactosidase prepared in the laboratory, 135 kDa
- time at which optimally active (19 hour incubation period, FIG. 7C): 30 min
- enzyme activity versus commercially available purchased β-gal (increasing amounts of enzyme, FIG. 7A): virtually identical

Reference: US12083191B2, “Composition and methods for imaging cells” (CASE WESTERN RESERVE UNIVERSITY, priority 2009, dated 2024)
